The values below come from ChEMBL document CHEMBL3813697, “Design, synthesis, and anticancer activity of C8-substituted-4'-thionucleosides as potential HSP90 inhibitors” (Bioorg Med Chem, 2016).

For assay [1], the target named is Heat shock protein HSP90 (Homo sapiens) (UniProt P07900+P08238). In words: Competitive inhibition of recombinant HSP90 (unknown origin) at 100 uM measured after 3 hrs using FITC-labeled geldanamycin by fluorescence polarization assay. Background: In fluorescence polarisation assays a small probe gives low polarisation when free and higher when bound to something large.

A short description of assay [2]: Anticancer activity against human HCT116 cells measured after 72 hrs by SRB assay. It is filed as functional, cell-based. The following applies: HCT-116, 72 h. In general terms: In SRB staining, fixed cells bind dye roughly in proportion to their protein.
Another assay has as its system A549. In words: Anticancer activity against human A549 cells measured after 72 hrs by SRB assay. The format is functional, cell-based. The following applies: A549, 72 h.
The nature of assay [3]: Anticancer activity against human SNU638 cells measured after 72 hrs by SRB assay. It is filed as functional, cell-based. The following applies: SNU-638, 72 h.
A further assay concerns MDA-MB-231. Briefly: Anticancer activity against human MDA-MB-231 cells measured after 72 hrs by SRB assay. It is filed as functional, cell-based. The following applies: MDA-MB-231, 72 h.
The nature of assay [4]: Anticancer activity against human Caki1 cells measured after 72 hrs by SRB assay. It is filed as functional, cell-based. The following applies: CAKI-1, 72 h.

Activity calls are given as the source filed them. No cut-off for these calls is given here.

On to `Nc1ncnc2c1nc(NCc1ccccc1)n2[C@@H]1SC[C@@H](O)[C@H]1O`, for which, in assay [1], the inhibition entry is “inactive”.

As for `Nc1ncnc2c1nc(-c1ccco1)n2[C@@H]1SC[C@@H](O)[C@H]1O`, in assay [1], the inhibition result was “inactive”.

Take `CCCNc1nc2c(N)ncnc2n1[C@@H]1SC[C@@H](O)[C@H]1O`: the inhibition entry in assay [1] is “inactive”.

Take `CNc1ncnc2c1nc(-c1cccs1)n2[C@@H]1SC[C@@H](O)[C@H]1O`: the inhibition entry in assay [1] was “inactive”.

As to `Nc1ncnc2c1nc(-c1cccs1)n2[C@@H]1SC[C@@H](O)[C@H]1O`, the inhibition result in assay [1] was “inactive”.

In the case of `Nc1ncnc2c1nc(N1CCCCC1)n2[C@@H]1SC[C@@H](O)[C@H]1O`, the inhibition entry in assay [1] is “inactive”.

Turning to `Nc1ncnc2c1nc(N1CCCCC1)n2[C@@H]1S[C@H](CO)[C@@H](O)[C@H]1O`, the inhibition result in assay [1] was “inactive”.

As for `O[C@@H]1[C@H](O)CS[C@H]1n1c(-c2cccs2)nc2c(Cl)ncnc21`, the inhibition entry in assay [1] is “inactive”.

Regarding `CNc1nc2c(N)ncnc2n1[C@@H]1S[C@H](CO)[C@@H](O)[C@H]1O`, in assay [1], the inhibition entry is “inactive”.

Take `[N-]=[N+]=Nc1nc2c(Cl)ncnc2n1[C@@H]1SC[C@@H](O)[C@H]1O`: the inhibition result in assay [1] was “inactive”.

As to `Nc1ncnc2c1nc(-c1cccs1)n2[C@@H]1S[C@H](CO)[C@@H](O)[C@H]1O`, the inhibition entry in assay [1] was “inactive”.

For the molecule `[N-]=[N+]=Nc1nc2c(N)ncnc2n1[C@@H]1SC[C@@H](O)[C@H]1O`, the inhibition result in assay [1] was “inactive”.

`CNc1ncnc2c1nc(-c1ccco1)n2[C@@H]1SC[C@@H](O)[C@H]1O`: the inhibition result in assay [1] was “inactive”.

Consider `Nc1ncnc2c1nc(I)n2[C@@H]1SC[C@@H](O)[C@H]1O`, for which the inhibition in assay [1] turned out to be 11%.

Turning to `CNc1nc2c(N)ncnc2n1[C@@H]1SC[C@@H](O)[C@H]1O`, in assay [1], the inhibition entry is “inactive”.

Take `[N-]=[N+]=Nc1nc2c(N)ncnc2n1[C@@H]1S[C@H](CO)[C@@H](O)[C@H]1O`: the inhibition entry in assay [1] was “inactive”.

`Nc1ncnc2c1nc(-c1ccccc1)n2[C@@H]1S[C@H](CO)[C@@H](O)[C@H]1O`: the inhibition entry in assay [1] was “inactive”.

`Nc1ncnc2c1nc(NCc1ccc3c(c1)OCO3)n2[C@@H]1SC[C@@H](O)[C@H]1O`: the IC50 (in assay [2]; in the assay on A549; in assay [3]; in the assay with MDA-MB-231; in assay [4]) was above 100000 nM in each case. Also, the inhibition result in assay [1] is “inactive”.

Consider `Nc1ncnc2c1nc(-c1ccco1)n2[C@@H]1S[C@H](CO)[C@@H](O)[C@H]1O`, for which, in assay [1], the inhibition entry was “inactive”.

As for `COC1=C2C[C@@H](C)C[C@H](OC)[C@H](O)[C@@H](C)/C=C(\C)[C@H](OC(N)=O)[C@@H](OC)/C=C\C=C(/C)C(=O)NC(=CC1=O)C2=O` [GELDANAMYCIN], the IC50 is 150 nM in assay [2]; 109 nM with A549; 30 nM in assay [3]; 110 nM with MDA-MB-231; 56 nM in assay [4].

Take `O[C@@H]1[C@H](O)CS[C@H]1n1c(-c2ccco2)nc2c(Cl)ncnc21`: the inhibition result in assay [1] was “inactive”.

Regarding `CCCNc1nc2c(N)ncnc2n1[C@@H]1S[C@H](CO)[C@@H](O)[C@H]1O`, the inhibition entry in assay [1] is “inactive”.

By inhibition is commonly meant how much of the control response was suppressed. As usually defined, the IC50 is the concentration at which inhibition is half-maximal.
